Laboratory results from the NIST ThermoML archive (doi:10.1016/j.jct.2015.02.011).

Assay: xn = mol fraction of the nth substance listed
Conditions: 100.7 kPa, Liquid; for speed of sound: Frequency=3 MHz, Sing-around technique in a fixed-path interferometer; for mass density: Vibrating tube method

CCCCCCn1cc[n+](C)c1.F[P-](F)(F)(F)(F)F [1-hexyl-3-methylimidazolium hexafluorophosphate] + C1CCOC1
Conditions	mass density [kg/m3]	speed of sound [m/s]
293.15 K, x1 = 0.1036	1001.33	1328.7
293.15 K, x1 = 0.2002	1074.85	1349.2
293.15 K, x1 = 0.2868	1123.69	1366.6
293.15 K, x1 = 0.4134	1175.92	1385.4
293.15 K, x1 = 0.5222	1209.22	1398.2
293.15 K, x1 = 0.6239	1233.91	1408.8
293.15 K, x1 = 0.6951	1248.83	1414.7
293.15 K, x1 = 0.7978	1267.15	1423.7
293.15 K, x1 = 0.8953	1282.62	1430.4
293.15 K, x1 = 1	1296.72	1437.7
298.15 K, x1 = 0.1036	996.523	1308.8
298.15 K, x1 = 0.2002	1070.1	1330.9
298.15 K, x1 = 0.2868	1119.03	1348.8
298.15 K, x1 = 0.4134	1171.43	1370
298.15 K, x1 = 0.5222	1204.92	1383.3
298.15 K, x1 = 0.6239	1229.78	1394.6
298.15 K, x1 = 0.6951	1244.72	1400.1
298.15 K, x1 = 0.7978	1263.02	1409.8
298.15 K, x1 = 0.8953	1278.55	1417.1
298.15 K, x1 = 1	1292.62	1424.3
303.15 K, x1 = 0.1036	991.33	1287.5
303.15 K, x1 = 0.2002	1065.16	1311.7
303.15 K, x1 = 0.2868	1114.11	1331.2
303.15 K, x1 = 0.4134	1166.92	1352.9
303.15 K, x1 = 0.5222	1200.49	1367.7
303.15 K, x1 = 0.6239	1225.49	1379.7
303.15 K, x1 = 0.6951	1240.35	1386.4
303.15 K, x1 = 0.7978	1258.87	1395.8
303.15 K, x1 = 0.8953	1274.54	1403.8
303.15 K, x1 = 1	1288.61	1411.5
308.15 K, x1 = 0.1036	986.423	1267.3
308.15 K, x1 = 0.2002	1060.21	1293.6
308.15 K, x1 = 0.2868	1109.47	1314.3
308.15 K, x1 = 0.4134	1162.51	1338.2
308.15 K, x1 = 0.5222	1196.52	1353.7
308.15 K, x1 = 0.6239	1221.41	1365.4
308.15 K, x1 = 0.6951	1236.28	1372.3
308.15 K, x1 = 0.7978	1255.02	1382.1
308.15 K, x1 = 0.8953	1270.73	1390.9
308.15 K, x1 = 1	1284.72	1399
313.15 K, x1 = 0.1036	981.583	1247
313.15 K, x1 = 0.2002	1055.56	1275.7
313.15 K, x1 = 0.2868	1105.02	1298
313.15 K, x1 = 0.4134	1158.19	1322.6
313.15 K, x1 = 0.5222	1192.16	1339.2
313.15 K, x1 = 0.6239	1217.23	1351.9
313.15 K, x1 = 0.6951	1232.35	1358.4
313.15 K, x1 = 0.7978	1251.08	1369.7
313.15 K, x1 = 0.8953	1266.85	1379.6
313.15 K, x1 = 1	1280.82	1386.9
318.15 K, x1 = 0.1036	976.176	1226.8
318.15 K, x1 = 0.2002	1050.65	1257.8
318.15 K, x1 = 0.2868	1100.21	1281.7
318.15 K, x1 = 0.4134	1153.59	1307.3
318.15 K, x1 = 0.5222	1187.55	1324.1
318.15 K, x1 = 0.6239	1212.63	1337.8
318.15 K, x1 = 0.6951	1227.99	1345.7
318.15 K, x1 = 0.7978	1246.87	1357.4
318.15 K, x1 = 0.8953	1262.74	1367.7
318.15 K, x1 = 1	1276.37	1375
323.15 K, x1 = 0.1036	971.026	1207.5
323.15 K, x1 = 0.2002	1045.83	1240.6
323.15 K, x1 = 0.2868	1095.6	1265.7
323.15 K, x1 = 0.4134	1148.94	1291.2
323.15 K, x1 = 0.5222	1183.5	1309.2
323.15 K, x1 = 0.6239	1208.58	1323.8
323.15 K, x1 = 0.6951	1224.2	1332.8
323.15 K, x1 = 0.7978	1243.02	1345.3
323.15 K, x1 = 0.8953	1258.69	1355.6
323.15 K, x1 = 1	1272.45	1363.3

CCCCCCCC[n+]1ccn(C)c1.F[P-](F)(F)(F)(F)F [1-octyl-3-methylimidazolium hexafluorophosphate] + C1CCOC1
Conditions	mass density [kg/m3]	speed of sound [m/s]
293.15 K, x1 = 0.0767	972.545	1319.1
293.15 K, x1 = 0.1791	1048.06	1338.4
293.15 K, x1 = 0.2783	1097.51	1356
293.15 K, x1 = 0.3996	1139.52	1371.5
293.15 K, x1 = 0.5198	1169.49	1384.1
293.15 K, x1 = 0.612	1187.49	1392.2
293.15 K, x1 = 0.6957	1201.25	1399
293.15 K, x1 = 0.7754	1212.53	1405.2
293.15 K, x1 = 0.8991	1227.92	1414
293.15 K, x1 = 1	1238.77	1421.2
298.15 K, x1 = 0.0767	967.476	1297.5
298.15 K, x1 = 0.1791	1043.39	1320.2
298.15 K, x1 = 0.2783	1092.94	1339.2
298.15 K, x1 = 0.3996	1135.15	1355.5
298.15 K, x1 = 0.5198	1165.32	1368.6
298.15 K, x1 = 0.612	1183.35	1376.8
298.15 K, x1 = 0.6957	1197.12	1383.9
298.15 K, x1 = 0.7754	1208.52	1390.5
298.15 K, x1 = 0.8991	1223.83	1399.8
298.15 K, x1 = 1	1234.79	1406.5
303.15 K, x1 = 0.0767	962.388	1276.5
303.15 K, x1 = 0.1791	1038.59	1302.6
303.15 K, x1 = 0.2783	1088.35	1322.5
303.15 K, x1 = 0.3996	1130.86	1340.1
303.15 K, x1 = 0.5198	1161.03	1353.2
303.15 K, x1 = 0.612	1179.13	1361.9
303.15 K, x1 = 0.6957	1193.04	1369.2
303.15 K, x1 = 0.7754	1204.52	1376.1
303.15 K, x1 = 0.8991	1219.78	1385.8
303.15 K, x1 = 1	1230.84	1392.4
308.15 K, x1 = 0.0767	957.488	1254.8
308.15 K, x1 = 0.1791	1033.77	1283.4
308.15 K, x1 = 0.2783	1083.82	1304.2
308.15 K, x1 = 0.3996	1126.53	1323.2
308.15 K, x1 = 0.5198	1157	1338.3
308.15 K, x1 = 0.612	1175.28	1347.8
308.15 K, x1 = 0.6957	1189.11	1355.3
308.15 K, x1 = 0.7754	1200.62	1362.2
308.15 K, x1 = 0.8991	1216.13	1371.3
308.15 K, x1 = 1	1227.09	1379
313.15 K, x1 = 0.0767	952.422	1231.1
313.15 K, x1 = 0.1791	1028.9	1263.7
313.15 K, x1 = 0.2783	1079.26	1286.5
313.15 K, x1 = 0.3996	1122.17	1309.5
313.15 K, x1 = 0.5198	1152.84	1324.6
313.15 K, x1 = 0.612	1171.22	1334
313.15 K, x1 = 0.6957	1185.14	1341.6
313.15 K, x1 = 0.7754	1196.65	1348.4
313.15 K, x1 = 0.8991	1212.37	1357.6
313.15 K, x1 = 1	1223.3	1365.8
318.15 K, x1 = 0.0767	947.162	1209
318.15 K, x1 = 0.1791	1024.04	1242.4
318.15 K, x1 = 0.2783	1074.69	1268.7
318.15 K, x1 = 0.3996	1117.75	1292.1
318.15 K, x1 = 0.5198	1148.57	1309.3
318.15 K, x1 = 0.612	1167.05	1319.7
318.15 K, x1 = 0.6957	1181.01	1327
318.15 K, x1 = 0.7754	1192.68	1333.4
318.15 K, x1 = 0.8991	1208.44	1342.7
318.15 K, x1 = 1	1219.5	1351.2
323.15 K, x1 = 0.0767	941.999	1185.7
323.15 K, x1 = 0.1791	1019.03	1222.6
323.15 K, x1 = 0.2783	1069.89	1250.7
323.15 K, x1 = 0.3996	1113.1	1276.2
323.15 K, x1 = 0.5198	1144.07	1294.4
323.15 K, x1 = 0.612	1162.61	1305.3
323.15 K, x1 = 0.6957	1176.74	1313
323.15 K, x1 = 0.7754	1188.63	1319.2
323.15 K, x1 = 0.8991	1204.28	1329.8
323.15 K, x1 = 1	1215.42	1338
